Data as given in patent US20190365719A1, “COMBINATION TREATMENTS OF HSP90 INHIBITORS FOR ENHANCING TUMOR IMMUNOGENICITY AND METHODS OF USE THEREOF” (Massachusetts Institute of Technology, priority 2018, published 2019).

Test system: MC38 tumors
Assay: Subcutaneous MC38 tumors in syngeneic C57Bl/6 mice, HSP90i in drinking water
Assay type: in vivo
Description: All experiments involving mice were performed under a protocol approved by the MIT Institutional Animal Care and Use Committee. MC38 cells growing in log phase were harvested by incubation with trypsin, washed 3× in PBS, and implanted (1×10^5 cells/site) into the right inguinal region of 6-8 week old female C57B16 mice (Jackson Labs). Once palpable, tumors were monitored every other day via digital caliper measurements and volume calculated using the following formula: Length (mm)×Width (mm)×Width (mm)×[…]=tumor volume in mm^3. Mice were euthanized by CO2 inhalation, tumors were harvested and cut into thirds with a razor for histology, flow cytometry, and flash freezing in liquid N2 for RNA/protein isolation.
For oral dosing with HSP90i, the average water consumption of the mice was calculated by measuring water bottle weight before and after 72 hours of housing to determine the average consumption per mouse, per day. Across all experiments, C57Cl/6 mice consumed approximately 4 mL every day. Using these water consumption values, and mouse weight, a 4 mg/mL stock solution of NVP-HSP990 (in 100% PEG400) was diluted directly into the drinking water to achieve a target dose of 0.5 mg/kg/day. HSP990 treatment was begun 72 hours prior to implantation of MC38 cells to allow the drug to reach steady state level prior to tumor challenge.
Histology For histological sectioning, tumor tissue was fixed in 10% buffered formalin for 24 hours prior to transfer to 70% EtOH for storage until paraffin-embedding, sectioning and mounting on glass slides. For CD3 and CD8 staining, slides were dewaxed, and antigen retrieval was performed in citrate buffer (10 mM Citric acid, pH=6.0) and pressure-cooked. Slides were then cooled and washed in PBS+0.1% Tween-20 (PBST). Endogenous peroxidase activity was then blocked with Dako Dual Enzyme Block (Agilent Technologies) and endogenous proteins were blocked with 2.5% goat serum in PBST. Slides were then incubated with primary anti-CD8 antibody (1:400) overnight at 4° C. or anti-CD3 antibody (1:500) for 1 hr at 25° C. After incubation with primary antibody, slides were washed 3× with PBST, and then incubated with HRP-conjugated secondary antibody for 30 min at […]. Slides were then washed 3× with PBST prior to development with DAB substrate for 3-5 min until positive staining was observed.
For CD8 and CD3 quantification, slides were scanned with a Leica High Resolution slide scanner and images imported into Aperio eSlide Manager. Two independent sections from each tumor were outlined and CD3/CD8+ cells were identified and quantified using the Nuclear-ID-v1 Algorithm. Individual tumor values are the average of the two tumor sections.
For analysis of MHC Class I on MC38 tumors, mice were sacrificed with by CO2 inhalation, tumor tissue quickly dissected and placed on ice until processing by thorough mincing with a razor and filtration through a 70 μm cell strainer. Cells were then stained with H2-Kb antibody (1:400) or isotype control as described for cultured cells.
For analysis of tissues, samples (2.5-5.0 mm^3) were homogenized in 1 mL of Trizol (Molecular Research Center), phase separated with 200 μL chloroform, and precipitated with 100% isopropanol prior to resuspension in MilliQ H2O and quantification with Nanodrop. RNA was then processed as described above for qRT-PCR.

[1] = 0.5 mg/kg/day in drinking water, 18 days post implantation, C57Bl/6

For COc1cccc(-c2cc(F)ccc2[C@H]2Cc3nc(N)nc(C)c3C(=O)N2)n1 [NVP-HSP990], the “reduction in tumor mass” value [1] was “greater than 50%”, the “reduction in tumor volume” value [1] was “greater than 50%” and the “heat-shock response in tumors (qRT-PCR)” value (continuous low-dose administration) was “does not induce a heat-shock response”. The “immune gene expression in MC38 tumor tissue (Nanostring)” value (low dose exposure) was “did not result in broad downregulation in immune gene expression”, the “total number of CD3+ or CD8+ T-cells in the tumors” value (treated versus control mice) was “no significant difference” and the “MHC Class I expression on the surface of dissociated MC38 tumor cells” value (tumors from treated mice versus vehicle) was “higher levels of MHC Class I expression”.
